Active and inactive are the calls of the source. The calls are words filed in the database; no cut-off is given here.
Assays:
[1] = target: Stress-induced-phosphoprotein 1 (Homo sapiens) (UniProt P31948); test: Binding affinity to Stip1 (unknown origin) assessed as fold change in protein upregulation at 200 uM preincubated for 2 hrs followed by pronase addition and measured after 30 mins by coomassie blue staining based SDS-PAGE gel analysis
NRK-52E [2] = test: Anti-renal-fibrosis activity in TGF-beta1 induced rat NRK-52E cells assessed as downregulation of alpha-SMA protein level at 20 uM by Western blot analysis; type: functional, cell-based
NRK-52E [3] = test: Anti-renal-fibrosis activity in TGF-beta1 induced rat NRK-52E cells assessed as downregulation of collagen I protein level by Western blot analysis; type: functional, cell-based; details: dose 5-40 µM
[4] = target: Chromobox protein homolog 5 (Homo sapiens) (UniProt P45973); test: Binding affinity to Cbx5 (unknown origin) assessed as fold change in protein upregulation at 200 uM preincubated for 2 hrs followed by pronase addition and measured after 30 mins by coomassie blue staining based SDS-PAGE gel analysis
Sequence of Chromobox protein homolog 5 (Homo sapiens) (P45973 whole entry): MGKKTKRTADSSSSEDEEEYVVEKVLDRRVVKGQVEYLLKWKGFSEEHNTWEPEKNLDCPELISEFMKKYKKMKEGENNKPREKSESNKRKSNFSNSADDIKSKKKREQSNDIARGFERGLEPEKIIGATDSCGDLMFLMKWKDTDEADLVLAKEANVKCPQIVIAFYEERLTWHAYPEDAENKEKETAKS

[5] = target: Protein farnesyltransferase/geranylgeranyltransferase type-1 subunit alpha (Homo sapiens) (UniProt P49354); test: Binding affinity to FNTA (unknown origin) assessed as fold change in protein upregulation at 200 uM preincubated for 2 hrs followed by pronase addition and measured after 30 mins by coomassie blue staining based SDS-PAGE gel analysis
[6] = target: Armadillo repeat-containing protein 10 (Homo sapiens) (UniProt Q8N2F6); test: Binding affinity to Armc10 (unknown origin) at 200 uM preincubated for 2 hrs followed by pronase addition and measured after 30 mins by coomassie blue staining based SDS-PAGE gel analysis
Sequence of Armadillo repeat-containing protein 10 (Homo sapiens) (Q8N2F6 whole entry): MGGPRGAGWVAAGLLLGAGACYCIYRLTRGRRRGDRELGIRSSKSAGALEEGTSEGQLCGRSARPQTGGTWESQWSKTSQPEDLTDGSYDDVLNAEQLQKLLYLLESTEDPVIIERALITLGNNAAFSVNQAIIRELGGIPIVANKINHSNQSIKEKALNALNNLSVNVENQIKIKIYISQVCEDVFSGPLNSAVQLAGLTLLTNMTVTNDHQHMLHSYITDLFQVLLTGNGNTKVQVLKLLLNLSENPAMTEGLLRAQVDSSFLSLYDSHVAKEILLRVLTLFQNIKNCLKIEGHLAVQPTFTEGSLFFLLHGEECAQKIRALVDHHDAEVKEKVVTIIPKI

[7] = target: Na(+)/H(+) exchange regulatory cofactor NHE-RF1 (Homo sapiens) (UniProt O14745); test: Binding affinity to Slc9a3r1 (unknown origin) assessed as fold change in protein upregulation at 200 uM preincubated for 2 hrs followed by pronase addition and measured after 30 mins by coomassie blue staining based SDS-PAGE gel analysis
Sequence of Na(+)/H(+) exchange regulatory cofactor NHE-RF1 (Homo sapiens) (O14745 whole entry): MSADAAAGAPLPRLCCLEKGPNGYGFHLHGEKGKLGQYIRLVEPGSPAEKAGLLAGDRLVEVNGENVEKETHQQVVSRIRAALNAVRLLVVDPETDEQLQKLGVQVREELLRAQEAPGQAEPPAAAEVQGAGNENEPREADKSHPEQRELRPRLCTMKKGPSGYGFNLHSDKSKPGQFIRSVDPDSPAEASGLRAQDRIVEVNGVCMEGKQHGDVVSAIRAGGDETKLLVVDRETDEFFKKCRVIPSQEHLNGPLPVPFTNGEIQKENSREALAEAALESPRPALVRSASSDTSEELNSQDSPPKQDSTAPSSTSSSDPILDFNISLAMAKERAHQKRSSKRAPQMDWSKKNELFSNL

[8] = system: RNA polymerase II-associated factor 1 homolog; test: Binding affinity to Paf1 (unknown origin) at 200 uM preincubated for 2 hrs followed by pronase addition and measured after 30 mins by coomassie blue staining based SDS-PAGE gel analysis; details: Homo sapiens
NRK-52E [9] = test: Anti-renal-fibrosis activity in TGF-beta1 induced rat NRK-52E cells assessed as downregulation of fibronectin expression at 40 uM; type: functional, cell-based
RAW264.7 = test: Antiinflammatory activity against LPS-induced mouse RAW264.7 cells assessed as reduction in COX-2 protein level at 20 uM; type: functional, cell-based
[10] = target: V-type proton ATPase subunit C 1 (Homo sapiens) (UniProt P21283); test: Binding affinity to Atp6v1c1 (unknown origin) assessed as fold change in protein upregulation at 200 uM preincubated for 2 hrs followed by pronase addition and measured after 30 mins by coomassie blue staining based SDS-PAGE gel analysis
Sequence of V-type proton ATPase subunit C 1 (Homo sapiens) (P21283 whole entry): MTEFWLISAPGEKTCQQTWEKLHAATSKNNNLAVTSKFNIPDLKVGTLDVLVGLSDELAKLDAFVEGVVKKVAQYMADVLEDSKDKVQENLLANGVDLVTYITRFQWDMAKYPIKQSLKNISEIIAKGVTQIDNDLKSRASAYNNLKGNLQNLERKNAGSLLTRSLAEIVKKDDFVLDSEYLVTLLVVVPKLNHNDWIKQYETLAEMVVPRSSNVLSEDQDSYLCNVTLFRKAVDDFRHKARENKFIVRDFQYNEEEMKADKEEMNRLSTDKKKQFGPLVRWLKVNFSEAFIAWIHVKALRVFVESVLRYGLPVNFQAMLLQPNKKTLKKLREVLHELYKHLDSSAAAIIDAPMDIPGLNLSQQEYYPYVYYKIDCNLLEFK

[11] = target: Serine/threonine-protein kinase TAO3 (Homo sapiens) (UniProt Q9H2K8); test: Binding affinity to Taok3 (unknown origin) at 200 uM preincubated for 2 hrs followed by pronase addition and measured after 30 mins by coomassie blue staining based SDS-PAGE gel analysis
NRK-52E [12] = test: Anti-renal-fibrosis activity in TGF-beta1 induced rat NRK-52E cells assessed as downregulation of alpha-SMA expression at 40 uM; type: functional, cell-based
NRK-52E [13] = test: Anti-renal-fibrosis activity in TGF-beta1 induced rat NRK-52E cells assessed as downregulation of collagen I protein level at 20 uM by Western blot analysis; type: functional, cell-based
[14] = target: Poly(rC)-binding protein 3 (Homo sapiens) (UniProt P57721); test: Binding affinity to Pcbp3 (unknown origin) at 200 uM preincubated for 2 hrs followed by pronase addition and measured after 30 mins by coomassie blue staining based SDS-PAGE gel analysis
Sequence of Poly(rC)-binding protein 3 (Homo sapiens) (P57721 whole entry): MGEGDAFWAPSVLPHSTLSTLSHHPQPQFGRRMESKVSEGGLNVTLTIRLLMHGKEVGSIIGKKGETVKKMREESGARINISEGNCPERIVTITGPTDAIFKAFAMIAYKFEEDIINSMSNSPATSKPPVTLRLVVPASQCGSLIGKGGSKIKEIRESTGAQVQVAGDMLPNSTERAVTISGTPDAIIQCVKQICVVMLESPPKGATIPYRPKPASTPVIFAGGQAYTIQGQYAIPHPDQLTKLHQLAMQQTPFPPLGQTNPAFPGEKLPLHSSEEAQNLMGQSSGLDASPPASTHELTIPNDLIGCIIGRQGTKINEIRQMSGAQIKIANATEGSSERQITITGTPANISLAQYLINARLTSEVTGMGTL

[15] = target: Nonsense-mediated mRNA decay factor SMG7 (Homo sapiens) (UniProt Q92540); test: Binding affinity to Smg7 (unknown origin) at 200 uM preincubated for 2 hrs followed by pronase addition and measured after 30 mins by coomassie blue staining based SDS-PAGE gel analysis
[16] = target: Splicing factor 3A subunit 3 (Homo sapiens) (UniProt Q12874); test: Binding affinity to Sf3a3 (unknown origin) assessed as fold change in protein upregulation at 200 uM preincubated for 2 hrs followed by pronase addition and measured after 30 mins by coomassie blue staining based SDS-PAGE gel analysis
Sequence of Splicing factor 3A subunit 3 (Homo sapiens) (Q12874 whole entry): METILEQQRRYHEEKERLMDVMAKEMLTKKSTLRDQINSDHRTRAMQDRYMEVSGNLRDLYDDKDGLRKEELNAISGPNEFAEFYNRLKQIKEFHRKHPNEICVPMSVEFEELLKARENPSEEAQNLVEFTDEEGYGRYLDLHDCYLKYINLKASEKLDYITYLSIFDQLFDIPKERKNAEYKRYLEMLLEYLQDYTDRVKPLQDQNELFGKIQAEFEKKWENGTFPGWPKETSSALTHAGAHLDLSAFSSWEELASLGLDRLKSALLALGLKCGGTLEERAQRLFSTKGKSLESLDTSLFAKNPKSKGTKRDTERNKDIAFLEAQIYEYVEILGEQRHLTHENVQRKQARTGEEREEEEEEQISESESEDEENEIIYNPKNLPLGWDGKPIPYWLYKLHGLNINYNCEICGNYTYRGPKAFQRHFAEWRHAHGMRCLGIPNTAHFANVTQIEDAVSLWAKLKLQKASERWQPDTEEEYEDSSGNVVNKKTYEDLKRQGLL

[17] = target: ATP-dependent RNA helicase DHX8 (Homo sapiens) (UniProt Q14562); test: Binding affinity to Dhx8 (unknown origin) at 200 uM preincubated for 2 hrs followed by pronase addition and measured after 30 mins by coomassie blue staining based SDS-PAGE gel analysis
[18] = target: 10 kDa heat shock protein, mitochondrial (Homo sapiens) (UniProt P61604); test: Binding affinity to Hspe1 (unknown origin) assessed as fold change in protein upregulation at 200 uM preincubated for 2 hrs followed by pronase addition and measured after 30 mins by coomassie blue staining based SDS-PAGE gel analysis
Sequence of 10 kDa heat shock protein, mitochondrial (Homo sapiens) (P61604 whole entry): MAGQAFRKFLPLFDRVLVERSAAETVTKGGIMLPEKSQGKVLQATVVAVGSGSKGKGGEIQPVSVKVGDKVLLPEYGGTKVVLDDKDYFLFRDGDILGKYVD

[19] = target: Glutathione hydrolase 7 (Homo sapiens) (UniProt Q9UJ14); test: Binding affinity to Ggt7 (unknown origin) at 200 uM preincubated for 2 hrs followed by pronase addition and measured after 30 mins by coomassie blue staining based SDS-PAGE gel analysis
Sequence of Glutathione hydrolase 7 (Homo sapiens) (Q9UJ14 whole entry): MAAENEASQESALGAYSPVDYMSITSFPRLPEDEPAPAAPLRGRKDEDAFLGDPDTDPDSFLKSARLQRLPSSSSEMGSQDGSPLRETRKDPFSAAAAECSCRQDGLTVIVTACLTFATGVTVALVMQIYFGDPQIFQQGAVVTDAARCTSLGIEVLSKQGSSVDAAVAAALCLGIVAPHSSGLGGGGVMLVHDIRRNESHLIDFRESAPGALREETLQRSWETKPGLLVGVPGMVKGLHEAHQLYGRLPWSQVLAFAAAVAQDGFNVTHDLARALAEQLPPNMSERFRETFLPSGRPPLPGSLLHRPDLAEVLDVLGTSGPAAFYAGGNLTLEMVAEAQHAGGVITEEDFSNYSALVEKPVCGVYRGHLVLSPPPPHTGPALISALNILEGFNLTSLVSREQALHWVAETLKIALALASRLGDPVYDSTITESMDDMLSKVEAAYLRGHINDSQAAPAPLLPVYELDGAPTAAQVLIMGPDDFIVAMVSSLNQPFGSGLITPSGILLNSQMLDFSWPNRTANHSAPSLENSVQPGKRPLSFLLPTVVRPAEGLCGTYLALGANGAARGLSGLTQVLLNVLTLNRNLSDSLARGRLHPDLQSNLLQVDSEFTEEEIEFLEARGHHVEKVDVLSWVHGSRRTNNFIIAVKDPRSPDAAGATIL

[20] = target: Protein FAM91A1 (Homo sapiens) (UniProt Q658Y4); test: Binding affinity to Fam91a1 (unknown origin) assessed as fold change in protein upregulation at 200 uM preincubated for 2 hrs followed by pronase addition and measured after 30 mins by coomassie blue staining based SDS-PAGE gel analysis
[21] = target: Serine/threonine-protein kinase DCLK1 (Homo sapiens) (UniProt O15075); test: Binding affinity to Dclk1 (unknown origin) assessed as fold change in protein upregulation at 200 uM preincubated for 2 hrs followed by pronase addition and measured after 30 mins by coomassie blue staining based SDS-PAGE gel analysis
[22] = target: Deoxycytidine kinase (Homo sapiens) (UniProt P27707); test: Binding affinity to Dck (unknown origin) at 200 uM preincubated for 2 hrs followed by pronase addition and measured after 30 mins by coomassie blue staining based SDS-PAGE gel analysis
Sequence of Deoxycytidine kinase (Homo sapiens) (P27707 whole entry, looked up): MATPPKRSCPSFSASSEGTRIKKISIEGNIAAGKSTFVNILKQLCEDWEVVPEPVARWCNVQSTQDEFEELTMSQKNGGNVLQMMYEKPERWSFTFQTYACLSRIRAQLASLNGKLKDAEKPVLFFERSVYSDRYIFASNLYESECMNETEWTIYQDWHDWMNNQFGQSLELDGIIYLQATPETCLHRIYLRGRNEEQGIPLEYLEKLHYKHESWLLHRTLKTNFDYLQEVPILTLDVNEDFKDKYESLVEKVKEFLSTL

[23] = target: U6 snRNA-associated Sm-like protein LSm8 (Homo sapiens) (UniProt O95777); test: Binding affinity to Lsm8 (unknown origin) at 200 uM preincubated for 2 hrs followed by pronase addition and measured after 30 mins by coomassie blue staining based SDS-PAGE gel analysis
Sequence of U6 snRNA-associated Sm-like protein LSm8 (Homo sapiens) (O95777 whole entry): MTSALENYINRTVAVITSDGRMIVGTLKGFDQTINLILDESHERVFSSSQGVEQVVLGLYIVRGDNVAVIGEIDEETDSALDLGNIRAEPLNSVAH

Lamin-B2 (Homo sapiens) = Lamin-B2 (Homo sapiens) (UniProt Q03252); test: Binding affinity to Lmnb2 (unknown origin) assessed as fold change in protein upregulation at 200 uM preincubated for 2 hrs followed by pronase addition and measured after 30 mins by coomassie blue staining based SDS-PAGE gel analysis
Sequence of Lamin-B2 (Homo sapiens) (Q03252 whole entry): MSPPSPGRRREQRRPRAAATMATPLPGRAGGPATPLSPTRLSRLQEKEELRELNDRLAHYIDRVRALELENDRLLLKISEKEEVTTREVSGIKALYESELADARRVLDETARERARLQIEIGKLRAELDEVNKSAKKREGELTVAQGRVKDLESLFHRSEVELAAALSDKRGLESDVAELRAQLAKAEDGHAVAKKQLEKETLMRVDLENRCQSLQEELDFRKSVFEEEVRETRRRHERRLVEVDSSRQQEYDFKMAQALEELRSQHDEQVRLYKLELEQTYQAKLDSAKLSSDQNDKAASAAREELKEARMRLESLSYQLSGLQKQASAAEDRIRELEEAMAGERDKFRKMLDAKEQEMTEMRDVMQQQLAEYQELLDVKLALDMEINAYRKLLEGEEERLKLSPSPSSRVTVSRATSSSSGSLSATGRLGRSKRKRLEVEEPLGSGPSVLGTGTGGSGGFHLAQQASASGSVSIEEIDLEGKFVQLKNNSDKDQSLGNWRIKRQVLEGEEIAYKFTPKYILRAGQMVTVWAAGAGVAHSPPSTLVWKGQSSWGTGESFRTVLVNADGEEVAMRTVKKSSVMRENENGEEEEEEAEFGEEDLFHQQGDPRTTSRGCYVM

[24] = target: Heat shock 70 kDa protein 4L (Homo sapiens) (UniProt O95757); test: Binding affinity to Hspa4l (unknown origin) assessed as fold change in protein upregulation at 200 uM preincubated for 2 hrs followed by pronase addition and measured after 30 mins by coomassie blue staining based SDS-PAGE gel analysis
Septin-5 (Homo sapiens) = Septin-5 (Homo sapiens) (UniProt Q99719); test: Binding affinity to Septin5 (unknown origin) assessed as fold change in protein upregulation at 200 uM preincubated for 2 hrs followed by pronase addition and measured after 30 mins by coomassie blue staining based SDS-PAGE gel analysis
Sequence of Septin-5 (Homo sapiens) (Q99719 whole entry): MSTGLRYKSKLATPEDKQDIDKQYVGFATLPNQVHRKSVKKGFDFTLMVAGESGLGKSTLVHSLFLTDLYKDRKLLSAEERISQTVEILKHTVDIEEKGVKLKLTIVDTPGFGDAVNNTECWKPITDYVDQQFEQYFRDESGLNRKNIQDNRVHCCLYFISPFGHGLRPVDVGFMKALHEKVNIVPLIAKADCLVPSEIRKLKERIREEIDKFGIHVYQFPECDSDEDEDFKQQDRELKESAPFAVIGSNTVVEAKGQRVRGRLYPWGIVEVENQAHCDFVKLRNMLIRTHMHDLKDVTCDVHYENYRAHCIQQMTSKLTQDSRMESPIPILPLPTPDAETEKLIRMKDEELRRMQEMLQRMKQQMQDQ

Sequence of Stress-induced-phosphoprotein 1 (Homo sapiens) (P31948 whole entry, looked up): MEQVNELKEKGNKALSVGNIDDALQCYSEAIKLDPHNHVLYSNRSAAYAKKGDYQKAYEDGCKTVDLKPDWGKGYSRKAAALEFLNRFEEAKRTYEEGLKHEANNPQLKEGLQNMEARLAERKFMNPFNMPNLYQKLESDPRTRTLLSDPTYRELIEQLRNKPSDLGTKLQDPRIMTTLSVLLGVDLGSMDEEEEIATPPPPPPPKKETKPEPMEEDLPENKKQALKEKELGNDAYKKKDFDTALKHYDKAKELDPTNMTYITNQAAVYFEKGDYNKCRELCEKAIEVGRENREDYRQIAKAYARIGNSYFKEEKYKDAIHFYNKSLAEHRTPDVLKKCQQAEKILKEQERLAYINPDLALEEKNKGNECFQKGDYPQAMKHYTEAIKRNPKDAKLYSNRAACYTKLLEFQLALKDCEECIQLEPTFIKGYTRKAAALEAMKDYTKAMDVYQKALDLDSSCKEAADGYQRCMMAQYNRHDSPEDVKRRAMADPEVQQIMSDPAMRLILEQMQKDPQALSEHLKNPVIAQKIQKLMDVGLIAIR

fold change (FC) [1]: 1.33
fold change (FC) [4]: 1.25
fold change (FC) [5]: 1.26
Activity [6]: Active
fold change (FC) [7]: 3.04
Activity [8]: Active
fold change (FC) [10]: 1.21
Activity [11]: Active
Activity [14]: Active
Activity [15]: Active
fold change (FC) [16]: 1.8
Activity [17]: Active
fold change (FC) [18]: 1.34
Activity [19]: Active
fold change (FC) [20]: 1.36
fold change (FC) [21]: 2.01
Activity [22]: Active
Activity [23]: Active
fold change (FC) (Lamin-B2 (Homo sapiens)): 1.24
fold change (FC) [24]: 1.28
fold change (FC) (Septin-5 (Homo sapiens)): 1.48
SMILES: COc1c(O)nc2c(O)cccc2c1OC
Activity (NRK-52E [2]): Active
Activity (NRK-52E [3]): Dose-Dependent Effect
Activity (NRK-52E [9]): Active
Activity (RAW264.7): Active
Activity (NRK-52E [12]): Active
Activity (NRK-52E [13]): Active
